We go through 20 compounds from patent US9108958B2, “Selective CCR2 antagonists” (Boehringer Ingelheim International GmbH, priority 2011, dated 2015).

The target of assay [1] is T1, CCR2 (Homo sapiens, UniProt P41597).
T1 construct: Membranes were prepared from THP-1 cells; endogenous in cells; host or cells: THP-1 (human acute monocytic leukaemia cells), membrane preparation
T1 sequence (P41597 1-360 isoform P41597-2): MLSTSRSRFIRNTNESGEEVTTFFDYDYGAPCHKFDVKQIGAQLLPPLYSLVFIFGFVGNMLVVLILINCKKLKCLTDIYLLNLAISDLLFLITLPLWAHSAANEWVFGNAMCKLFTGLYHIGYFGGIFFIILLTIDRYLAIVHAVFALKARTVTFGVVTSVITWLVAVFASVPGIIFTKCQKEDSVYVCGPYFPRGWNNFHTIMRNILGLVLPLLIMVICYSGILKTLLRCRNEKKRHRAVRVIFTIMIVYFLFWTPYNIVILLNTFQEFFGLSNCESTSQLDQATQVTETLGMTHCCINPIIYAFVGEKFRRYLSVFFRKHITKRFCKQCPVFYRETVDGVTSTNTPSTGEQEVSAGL
Briefly: CCR2 receptor membrane binding assay ([125I]MCP-1, THP-1 cell membranes, SPA beads). As to conditions: THP-1 membranes, [125I]MCP-1, bound radioactivity after 8 h; read-out: hKi [nM](CCR2). As to the method: The above exemplary substances have been tested for binding to CCR2 using a binding assay as outlined herein below:
THP-1 cells (human acute monocytic leukaemia cells) were cultured under standardized conditions at 37° C. and 5% CO2 in a humidified incubator. THP-1 cells were cultivated in RPMI 1640 medium (Gibco 21875) containing 1% MEM-NEAA (Gibso 11140) 2 mM L-glutamine, 1.5 g/L sodium bicarbonate, 4.5 g/L glucose, 10 mM HEPES and 1.0 mM sodium pyruvate, 90%; 10% fetal calf serum (FCS Gibco 10500-064).
Membranes were prepared from THP-1 cells. THP-1 cells were centrifuged at 300×g at 4° C. for 10 min. The cell pellet was resuspendet in Phosphate Buffer Saline (PBS, including 10 μM Pefabloc and a protease inhibitor mix ‘complete’, Boehringer Mannheim (1 tablet/50 ml)), to a concentration of […]. The membrane preparation was performed by disrupting the cells by nitrogen […] (at 50 bar, for 1 h) in a “Nitrogen Bombe” (Parr Instrument). Cell debris was removed by centrifugation (800×g at 4° C., 1 min) The supernatant was centrifuged at 80000×g, 4° C. for 30 min to sediment the cell membranes. Usually 50 mg of protein (Bradford assay) were yielded from 1×10E9 cells. The membranes were resuspendet in 25 mM HEPES, 25 mM MgCl2, 1 mM CaCl2, 10% Glycerine for storage in aliquots at −80° C. in 25 mM HEPES, 25 mM MgCl2, 1 mM CaCl2, 10% Glycerine and stored at −80° C.
(§1) Receptor Membrane Binding Assay:
Perkin Elmer NEX 332 Jod^125 MCP-1, Stock: 2200 Ci/mmol solved in 2000 μl assay buffer, stored at −20° C. THP-1 membrane were adjusted with 25 mM HEPES, pH 7.2; 5 mM MgCl2; 0.5 mM CaCl2; 0.2% BSA assay buffer to a concentration of 2.5 μg/15 μl. Amersham Biosciences PVT-WGA Beads (RPNQ0001) were adjusted with assay buffer to a concentration of 0.24 mg/30 μl. For preparation of the membrane-bead-suspension membranes and beads were incubated for 30 min at RT under rotation (60 rpm) with a ratio of 1:2. Test compounds dissolved in 100% DMSO to a concentration of 10 mM and are further diluted with 100% DMSO to 1 mM. All additional compound dilutions were obtained with assay buffer, final 1% DMSO. Compounds, membrane-bead-suspension and [^125I]MCP-1 (ca. 25000 cpm/10 μl) were incubated. Bound radioactivity was determined by scintillation counter after 8 h. Determination of affinity of test compounds (dissociation constant hKi) is calculated by iterative fitting of experimental data using the “easy sys” program, which is based on law of mass action (Schittkowski K. (1994), Numerische Mathematik, Vol. 68, 129-142).

Assay [2] concerns the target T2, human CCR5 (Homo sapiens, UniProt P51681).
T2 construct: expressed in transfected cells; host or cells: CHO cells co-expressing Gα16, under puromycin and zeocin selection; membrane preparation
The assay can be described thus: CCR5 receptor membrane binding assay ([125I]RANTES, CHO (Gα16) human CCR5 cell membranes, SPA beads). As to conditions: bound radioactivity after 6 h, read-out: hKi [nM] (CCR5). As to the method: The above exemplary substances have been tested for binding to CCR5 using a binding assay as outlined herein below:
CHO, (Gα16) human CCR5 cells were cultured under standardized conditions at 37° C. and 5% CO2 in a humidified incubator. CHO (Gα16) human CCR5 cells were cultivated in Ham's F12 (Invitrogen; #31765068) supplemented with 10 μg/ml Puromycin (Invitrogen; #A11139-03), 200 μg/ml Zeocin (Invitrogen; #45-0003) and 10% FCS (Gibco; #10500-064).
Membranes were prepared from CHO (Gα16) human CCR5 cells. Cells were cultured on […] plates (Nunc; #166508) 2-3 days before membrane preparation (usually 80-100 plates to obtain 80 mg protein).
Cells were scraped off the plates with a big scraper and washed with 2×5 ml ice cold Phosphate Buffer Saline (PBS; Invitrogen; #14040-174). Cell suspension was collected in a glass bottle (on ice). Cell suspension was harvested at 1400 rpm and 4° C. for 10 min and washed in PBS. Cell pellet was resuspended in 40 ml PBS with protease inhibitor mix ‘complete’ (Roche; #11873580001; 1 tablet/50 ml).
For gentle cell disruption the membrane preparation was performed by using a homogenizer (potter). Cells were homogenized for 5-10 min.
Membranes were centrifuged at 1000 rpm and 4° C. for 5 min Supernatant (=membrane) was harvested in a new falcon tube and remaining cell pellet homogenized again for 5-10 min with PBS with protease inhibitor mix and centrifuged. Collected supernatant was centrifuged at 40000 rpm and 4° C. for 30 min to sediment the cell membranes.
The membranes were resuspended in 25 mM HEPES, 25 mM MgCl2, 1 mM CaCl2, 10% Glycerine for storage in aliquots at −80° C. Membranes were diluted to a concentration of 5 mg/ml (Bradford Assay).
as §1
[^125I]RANTES, Stock: 1825 Ci/mmol, 25 μCi (Bio Trend #A3-AI-676) was solved in 1000 μl assay buffer (100 mM NaCl; 10 mM MgCl2; 50 mM Tris-HCl; 1 mM EDTA; 0.1% BSA, pH 7.6), stored at −20° C.
CHO (Gα16) human CCR5 membrane were solved on ice and adjusted with assay buffer to a concentration of 2.5 μg/15 μl.
Amersham Biosciences PVT-WGA Beads (GE Healthcare; #RPNQ0001) were adjusted with assay buffer to a concentration of 8 mg/ml. For preparation of the membrane-bead-suspension, membranes and beads were incubated for 30 min at RT under rotation with a ratio of 1:2.
Test compounds dissolved in 100% DMSO to a concentration of 10 mM and are further diluted with 100% DMSO to 1 mM. All additional compound dilutions were obtained with assay buffer, final 1% DMSO. 7 μl compound dilution, 45 μl membrane-bead-suspension and 10 μl [^125I]RANTES (ca. 20000 cpm/10 μl) were incubated at RT. Bound radioactivity was determined by scintillation counter after 6 h. Determination of affinity of test compounds (dissociation constant Ki) is calculated by iterative fitting of experimental data using the “easy sys” program, which is based on law of mass action (Schittkowski K. (1994), Numerische Mathematik, Vol. 68, 129-142).

The structures appear in SMILES notation.

T2 sequence (P51681 whole entry): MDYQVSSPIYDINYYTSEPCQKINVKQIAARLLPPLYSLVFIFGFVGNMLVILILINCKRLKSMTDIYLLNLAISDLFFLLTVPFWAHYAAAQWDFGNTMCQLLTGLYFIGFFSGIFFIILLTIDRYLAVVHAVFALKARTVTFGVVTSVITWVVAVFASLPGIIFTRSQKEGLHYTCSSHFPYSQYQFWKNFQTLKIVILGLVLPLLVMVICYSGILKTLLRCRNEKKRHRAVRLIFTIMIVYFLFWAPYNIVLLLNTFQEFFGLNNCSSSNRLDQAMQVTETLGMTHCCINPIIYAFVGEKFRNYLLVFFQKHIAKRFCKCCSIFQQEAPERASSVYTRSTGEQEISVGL

Regarding `CO[C@H]1COCC[C@H]1NC1CCN(C(=O)c2nc(C3CCOCC3)nc(N3CCc4ccc(C(F)(F)F)cc4C3)c2C)CC1` [Example 11], the Ki was 0.8 nM in assay [1] and 430 nM in assay [2].

Take `CO[C@@H]1COCC[C@@H]1NC1CCN(C(=O)c2nc(C3CCOCC3)nc(N3CCc4ccc(C(F)(F)F)cc4C3)c2C)CC1` [Example 12]: the values for the Ki in assay [1] and in assay [2] were 0.6 nM and 46 nM, respectively.

As for `Cc1c(C(=O)N2CCC(N[C@H]3CCOC[C@H]3F)CC2)nc(C2CCOCC2)nc1N1CCc2ccc(C(F)(F)F)cc2C1` [Example 13], the Ki in assay [1] amounted to 5 nM; in assay [2], 1300 nM.

Turning to `Cc1c(C(=O)N2CCC(N[C@@H]3CCOC[C@@H]3F)CC2)nc(C2CCOCC2)nc1N1CCc2ccc(C(F)(F)F)cc2C1` [Example 14], the Ki in assay [1] was found to be 3 nM; in assay [2], 2090 nM.

For the compound `Cc1c(NC[C@H]2CCC[C@@H](c3ccc(C(F)(F)F)cc3)O2)nc(C2CCOCC2)nc1C(=O)N1CCC(N[C@@H]2CCOC[C@@H]2F)CC1` [Example 15], the values for the Ki in assay [1] and in assay [2] were 3 nM and 270 nM, respectively.

As to `Cc1c(NC[C@H]2CCC[C@@H](c3ccc(C(F)(F)F)cc3)O2)nc(C2CCOCC2)nc1C(=O)N1CCC(N[C@H]2CCOC[C@H]2F)CC1` [Example 16], the Ki in assay [1] was 1 nM; in assay [2] it was 210 nM.

For `CO[C@@H]1COCC[C@@H]1NC1CCN(C(=O)c2nc(CF)nc(N3CCc4ccc(C(F)(F)F)cc4C3)c2C)CC1` [Example 17], the Ki was 2 nM in assay [1] and 180 nM in assay [2].

As for `CO[C@H]1COCC[C@H]1NC1CCN(C(=O)c2nc(CF)nc(N3CCc4ccc(C(F)(F)F)cc4C3)c2C)CC1` [Example 18], the Ki in assay [1] was found to be 5 nM; in assay [2], 460 nM.

As to `Cc1c(Nc2ccc(Cl)c(Cl)c2)nc(CF)nc1C(=O)N1CCC(NC2CCOCC2F)CC1` (stereo not shown) [Example 19], the Ki in assay [1] amounted to 3 nM; in assay [2], 350 nM.

With `CO[C@@H]1COCC[C@@H]1NC1CCN(C(=O)c2nc(CF)nc(Nc3ccc(Cl)c(Cl)c3)c2C)CC1` [Example 20], the Ki in assay [1] was 0.6 nM; in assay [2], 31 nM.

With `CO[C@H]1COCC[C@H]1NC1CCN(C(=O)c2nc(CF)nc(Nc3ccc(Cl)c(Cl)c3)c2C)CC1` [Example 21], the results for the Ki in assay [1] and in assay [2] were 2 nM and 75 nM, respectively.

On to `Cc1cc(-c2nc(NC[C@H]3CCC[C@@H](c4ccc(C(F)(F)F)cc4)O3)c(C)c(C(=O)N3CCC(N[C@@H]4CCOC[C@@H]4F)CC3)n2)no1` [Example 24], for which the Ki was determined as 1 nM in assay [1] and 50 nM in assay [2].

As to `CO[C@H]1COCC[C@H]1NC1CCN(C(=O)c2nc(-c3cc(C)on3)nc(N3CCc4ccc(C(F)(F)F)cc4C3)c2C)CC1` [Example 26], the Ki in assay [1] was determined as 5 nM; in assay [2], 130 nM.

In the case of `Cc1cc(-c2nc(C(=O)N3CCC(N[C@H]4CCOC[C@H]4F)CC3)c(C)c(N3CCc4ccc(C(F)(F)F)cc4C3)n2)no1` [Example 27], the Ki in assay [1] is 15 nM; in assay [2], 750 nM.

`Cc1cc(-c2nc(C(=O)N3CCC(N[C@@H]4CCOC[C@@H]4F)CC3)c(C)c(N3CCc4ccc(C(F)(F)F)cc4C3)n2)no1` [Example 28]: the Ki in assay [1] is 11 nM; in assay [2], 1350 nM.

For the compound `CO[C@@H]1COCC[C@@H]1NC1CCN(C(=O)c2nc(-c3cc(C)on3)nc(N3CCc4ccc(C(F)(F)F)cc4C3)c2C)CC1` [Example 29], the Ki in assay [1] was 2 nM; in assay [2], 53 nM.

Turning to `CO[C@H]1COCC[C@H]1NC1CCN(C(=O)c2nc(C(F)F)nc(N3CCc4ccc(C(F)(F)F)cc4C3)c2C)CC1` [Example 34], the Ki in assay [1] is 4 nM; in assay [2], 190 nM.

In the case of `CO[C@@H]1COCC[C@@H]1NC1CCN(C(=O)c2nc(C(F)F)nc(N3CCc4ccc(C(F)(F)F)cc4C3)c2C)CC1` [Example 35], the Ki in assay [1] was 2 nM; in assay [2], 160 nM.

For the compound `Cc1c(Nc2ccc(Cl)c(Cl)c2)nc(CF)nc1C(=O)N1CCC(N[C@@H]2CCOC[C@@H]2F)CC1` [Example 37], the values for the Ki in assay [1] and in assay [2] were 8 nM and 1370 nM, respectively.

Take `CSc1ccc([C@@H]2CCC[C@H](CNc3cc(C(=O)N4CCC(NC5CCOCC5F)CC4)nc(CF)n3)O2)cc1` (stereo partly shown) [Example 40]: the Ki in assay [1] amounted to 7 nM; in assay [2], 230 nM.
